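Five compound concentrations were applied to cells in 96-well plates for 48 hours; endpoints were derived by simple linear interpolation of the resulting dose-response curve. GI50 = concentration required for 50% inhibition of growth. Definition used: TGI = concentration required for complete inhibition of growth.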
How the values were obtained:
Assay in all cases: NCI anticancer screen, dose series, 48 h
[1] = system: UACC-257 melanoma
[2] = system: HOP-92 NSCLC
[3] = system: OVCAR-4 ovarian
[4] = system: PC-3 prostate
[5] = system: NCI/ADR-RES ovarian
[6] = system: M14 melanoma
[7] = system: DU-145 prostate
[8] = system: A549 NSCLC
[9] = system: NCI-H460 lung
[10] = system: SK-MEL-28 melanoma

Row | SMILES | GI50 [1] [µM] | TGI [1] [µM] | GI50 [2] [µM] | TGI [2] [µM] | GI50 [3] [µM] | TGI [3] [µM] | GI50 [4] [µM] | TGI [4] [µM] | GI50 [5] [µM] | TGI [5] [µM] | GI50 [6] [µM] | TGI [6] [µM] | GI50 [7] [µM] | TGI [7] [µM] | GI50 [8] [µM] | TGI [8] [µM] | GI50 [9] [µM] | TGI [9] [µM] | GI50 [10] [µM] | TGI [10] [µM]
1 | COc1cc(CNc2oc(-c3ccccc3)c(-c3ccccc3)c2C#N)cc(CN2CCN(C)CC2)c1O | 1.84 | 3.71 | 2.34 | 10.2 | 1.86 | 3.99 | 1.87 | 4.09 | 2.1 | 4.75 | 1.78 | 3.65 | 1.99 | 4.03 | 1.97 | 4.16 | 1.89 | 3.55 | 1.78 | 3.24
2 | O=C(Nc1cccc(C(F)(F)F)c1)Oc1ccc(Cl)c2cccnc12 | 1.32 | 3.24 | 0.462 | 4.02 | 0.831 | 14.8 | 0.607 | 14.2 | 1.23 | 16.8 | 1.49 | 7.83 | 2.38 | 15.8 | 2.43 | 9.03 | 1.01 | 5.08 | 4.29 | 17.8
3 | CC(SCc1ccccc1)C(=O)O (stereo not given) |  | > 100 |  | > 100 |  | > 100 |  | > 100 |  | > 100 |  | > 100 |  | > 100 |  | > 100 |  | > 100 |  | > 100
4 | O=c1[nH]c(=O)n(C2CC(O)C(CO)O2)cc1C(F)(F)F (stereo not given) | 8.61 | > 100 | > 100 | > 100 | > 100 | > 100 | > 100 | > 100 | 4.81 | > 100 | 1.01 | > 34.5 | 2.85 | > 100 | 3.35 | > 100 | 0.337 | > 100 | > 62.1 | > 100
5 | Cc1cc(O)c(-c2ccc([C@@H](C)CN(C)C)cc2)c2c1[nH]c(=O)c1sccc12 | 1.76 | 6.86 | 0.848 | 5.35 | 0.769 | 10.6 | 0.667 | 18 | 2.72 | 24.1 | 0.705 | 4.34 | 0.528 | 53.3 | 0.647 | 14.6 | 0.335 | > 49.1 | 1.33 | 5.56
6 | O=C(O)c1ccc(SSc2ccc(C(=O)O)cn2)nc1 |  | > 100 |  | > 100 |  | > 100 |  | > 100 |  | > 100 |  | > 100 |  | > 100 |  | > 100 |  | > 100 |  | > 100
7 | CNC(=O)c1cncc(/C=C/c2ccccc2Cl)c1 | > 25 | > 25 | 12.6 | > 25 | > 25 | > 25 | > 25 | > 25 | > 25 | > 25 | > 25 | > 25 | > 25 | > 25 | > 25 | > 25 | > 25 | > 25 | > 25 | > 25
8 | N#Cc1cccc(C2C3=C(COC3=O)N(CCO)c3cc4c(cc32)OCO4)c1 (stereo not given) | > 50 | > 50 | 2.66 | > 50 | 10.9 | > 50 | 1.62 | > 50 | 3.46 | > 50 | 0.806 | > 50 | 3 | > 50 | 6.17 | > 50 | 1.83 | > 50 | 25.5 | > 50
9 | C[C@]12C[C@H](O)[C@H]3[C@@H](CCC4=CC(=O)CC[C@@]43C)[C@@H]1CC[C@@H]2c1csc(-c2ccccc2)n1 |  | > 100 |  | > 100 |  | > 73.8 |  | 20.3 |  | > 100 |  | > 100 |  | > 100 |  | > 100 |  | > 100 |  | > 100
10 | C=C1C(=O)O[C@H]2C[C@@H]1C(=O)CC(C)CCCC(C)=CCC[C@@]2(C)O (stereo not given in full) |  | > 25 |  | > 25 |  | > 25 |  | > 25 |  | > 25 |  | > 25 |  | > 25 |  | > 25 |  | > 25 |  | > 25
11 | NC(Cc1ccccc1)c1nccs1 (stereo not given) |  | > 100 |  | > 100 |  | > 100 |  | > 100 |  | > 100 |  | > 100 |  | > 100 |  | > 100 |  |  |  | > 100
12 | COc1cc2nccc(Oc3ccc(NC(=O)c4cn(C(C)C)c(=O)n(-c5ccc(F)cc5)c4=O)cc3F)c2cc1OC | 7.65 | > 77.5 | 0.347 | > 100 | > 20.8 | > 100 | 6.28 | > 100 | > 100 | > 100 | 63.3 | > 100 | > 100 | > 100 | > 26 | > 100 | 4.98 | > 100 | 3.19 | 18.1
13 | CCN(Cc1c(F)cccc1Cl)c1ccc(CO)c(Cl)c1 | < 0.0248 | 0.05 | 0.116 | 0.933 | 0.0648 | 0.661 | 12 | 25.1 | 10.4 | 28.7 | 17.6 | 35.9 | 11.8 | 24.9 | 0.573 | 16.6 | < 0.0249 | 11.2 | 13.1 | 27.4
14 | CCn1c2ccccc2c2cc(C(=O)c3ccc(C)c4ccccc34)ccc21 | 39.3 | > 100 | 0.28 | 6.87 | 3.32 | > 100 | 0.392 | > 100 | 0.312 | > 100 | 0.276 | 1.42 | 0.435 | > 100 | 0.421 | > 100 | 0.356 | > 100 | 0.477 | > 100
15 | CS(=O)(=O)N(c1cc(-c2ccc3ncnc(Nc4ccc(F)c(Cl)c4)c3c2)cnc1Cl)S(C)(=O)=O | 1.11 | 14.5 | 0.191 | 1.73 | 2.33 | 19.4 | 1.1 | 7.9 | 2.54 | 20.9 | 1.17 | 11.9 | 1.18 | 24.9 | 1.98 | 11.2 | 1.76 | 13.5 | 0.54 | 4.93
16 | Cc1ccc(C(=O)NC2CC2)cc1-c1ccc2[nH]ncc2c1 | > 25 | > 25 | 6.22 | > 25 | > 25 | > 25 | > 25 | > 25 | > 25 | > 25 | > 25 | > 25 | > 25 | > 25 | > 25 | > 25 | > 25 | > 25 | > 25 | > 25
17 | COC(=O)N[C@H]1CCc2c(Cl)c(OC)c(OC)c(OC)c2-c2ccc(SC)c(=O)cc21 | 24.9 | > 100 | 0.0199 | 18.6 | 0.0813 | > 100 | < 0.01 | > 70.3 | 0.0155 | 0.509 | < 0.01 |  | < 0.01 | > 100 | < 0.01 | > 100 | < 0.01 | 1.05 | 8.52 | 46
18 | C[C@@H]1CC[C@@]2(NC1)O[C@H]1C[C@H]3[C@@H]4CC[C@H]5C[C@@H](O)CC[C@]5(C)[C@H]4CC[C@]3(C)[C@H]1[C@@H]2C |  | > 100 |  | > 100 |  | 71.7 |  | > 100 |  | > 100 |  | > 100 |  | > 100 |  | > 100 |  | > 100 |  | > 100
19 | CC1=NOC(=O)/C1=C/c1ccc2c(c1)OCO2 |  | > 100 |  | > 100 |  | > 100 |  | 48.5 |  | > 100 |  | > 100 |  | 68.6 |  | > 100 |  | > 100 |  | > 100
20 | CC(C)(C)OC(=O)N[C@@H](Cc1ccccc1)C(=O)N(Cc1ccccc1)C1(C(=O)NCc2ccccc2)CCN(Cc2ccccc2)CC1 | 2.54 | > 100 | 1.45 | 5.33 | 3.23 | > 100 | 2.46 | > 100 | 2.85 | 46.9 | 2.6 | 44.5 | 5.38 | > 100 | 3.85 | > 100 | 3 | 87.6 |  | 
21 | C=C(C)[C@@H]1CC[C@]2(C(=O)NS(=O)(=O)c3ccccc3)CC[C@]3(C)[C@H](CC[C@@H]4[C@@]5(C)CC[C@H](OC(=O)NS(=O)(=O)c6ccccc6)C(C)(C)[C@@H]5CC[C@]43C)[C@@H]12 | 3.06 | 9.06 | 1.9 | 4.72 | 3.04 | 51.4 | 2.11 | 20.6 | 3.87 | 24 | 1.99 | 6.89 | 3.18 | 13.8 | 3.24 | 21.8 | 1.49 | 3.26 | 2.05 | 5.32
22 | CCOC(=O)CN1C(=O)c2cc([N+](=O)[O-])cc3cc([N+](=O)[O-])cc(c23)C1=O |  | > 100 |  | > 100 |  | > 100 |  | > 100 |  | > 100 |  | > 100 |  | > 100 |  | > 100 |  | > 100 |  | > 100
23 | C=C1CCC2C3(C)COC(c4ccccc4Cl)OC3CCC2(C)C1/C=C/C1=CCOC1=O (stereo not given) | 9.09 | > 100 | 1.6 | > 100 | 4.47 | > 100 | 3.17 | > 100 | 7.74 | > 100 | 89.6 | > 100 | > 100 | > 100 | 4.97 | > 100 | 5.96 | > 100 | > 100 | > 100
24 | O=C[C@@H](CO)O[C@H](C=O)n1cnc2c(=O)[nH]cnc21 |  | 1670 |  | 865 |  | 1150 |  | 1780 |  | 1810 |  | 1860 |  | 1450 |  | 2460 |  | 2130 |  | 1530
25 | N#Cc1cc(S(=O)(=O)Nc2nc3ccccc3o2)c(SCc2ccccc2)cc1Cl | 22.3 | 55.9 | 17.4 | 34.2 | 42.1 | > 100 | 21.4 | 43.4 | 29.6 | 75.8 | 25.4 | 52.7 | 21 | 46.7 | 22.5 | 55 | 21.5 | 56.1 | 18.9 | 40.4
26 | O=C1NC(c2ccccc2)C2(C(=O)O)CN(C3CC3)c3cc(N4CCNCC4)c(F)cc3C2N1 (stereo not given) | > 100 | > 100 | > 100 | > 100 | > 100 | > 100 | > 100 | > 100 | > 100 | > 100 |  |  | > 100 | > 100 | > 100 | > 100 | > 100 | > 100 | > 100 | > 100
27 | CN1CCN(CCCOc2cc(O)c3c(=O)cc(-c4ccccc4)oc3c2)CC1 | 19.4 | 41.1 | 14.5 | 42.9 | 16.3 | 41 | 31.4 | > 100 | 18.6 | 43.2 |  |  | 25.3 | 73.7 | 28.8 | 91.1 | 16.7 | 34.5 | 16.1 | 30.6
28 | CN(C)CCCNc1nc2ccccc2c2[nH]c3ccccc3c12 | 3.48 | 14.7 | 1.26 | 3.83 |  |  | 0.897 | 2.97 | 0.769 | 4.08 | 1.11 | 2.46 | 0.72 | 4.36 | 0.402 | 8.18 | 0.737 | 3.28 | 2.04 | 5.84

Source: PubChem BioAssay (NCI)
